# Literature values, collected in patent US11395798B2, “O/W type emulsion” (NOF CORPORATION, priority 2015, dated 2022).
# Conditions: water/octanol; cited from earlier work
row,Molecule,Log Pow
1,CCCCCCCCCCCCCCCC(=O)Oc1ccc2c(C)cc(=O)oc2c1 [4-methylumbelliferone palmitate],7.92
2,COc1ccc2c(c1)c(CC(=O)OCC(=O)O)c(C)n2C(=O)c1ccc(Cl)cc1 [acemetacin],4.49
3,CCC(=O)OCC(=O)[C@@]1(OC(=O)CC)[C@@H](C)C[C@H]2[C@@H]3CCC4=CC(=O)C=C[C@]4(C)[C@@]3(Cl)[C@@H](O)C[C@@]21C [beclopetasone propionate],4.07
4,COC(=O)C1=C(C)NC(C)=C(C(=O)OC2CCCN(Cc3ccccc3)C2)C1c1cccc([N+](=O)[O-])c1 (stereo not drawn) [benidipine],5.56
5,CCc1oc2ccccc2c1C(=O)c1cc(Br)c(O)c(Br)c1 [benzbromarone],6.65
6,CCCCC(=O)O[C@]1(C(=O)CO)[C@@H](C)C[C@H]2[C@@H]3CCC4=CC(=O)C=C[C@]4(C)[C@@]3(F)[C@@H](O)C[C@@]21C [betamethasone valerate],4.14
7,c1ccc(-c2ccc(C(c3ccccc3)n3ccnc3)cc2)cc1 (stereo not drawn) [bifonazole],4.69
8,CCOc1nc2cccc(C(=O)OC(C)OC(=O)OC3CCCCC3)c2n1Cc1ccc(-c2ccccc2-c2nnn[nH]2)cc1 (stereo not drawn) [candesartancilexetil],7.21
9,COc1ccccc1OCCNCC(O)COc1cccc2[nH]c3ccccc3c12 (stereo not drawn) [carvedilol],4.07
10,CCCCCCCCCCCCCCCC(=O)OC[C@@H](NC(=O)C(Cl)Cl)[C@H](O)c1ccc([N+](=O)[O-])cc1 [chloramphenicol palmitate],8.69
11,[H]/N=C(\N/C(=N/[H])NCCCCCCNC(=N)NC(=N)Nc1ccc(Cl)cc1)Nc1ccc(Cl)cc1 [chlorhexidine],4.58
12,C=C1CC[C@H](O)C/C1=C/C=C1\CCC[C@]2(C)[C@@H]([C@H](C)CCCC(C)C)CC[C@@H]12 [cholecalciferol],9.08
13,CCC(C)(Oc1ccc(C2(c3ccc(OC(C)(CC)C(=O)O)cc3)CCCCC2)cc1)C(=O)O (stereo not drawn) [clinofibrate],6.33
14,Clc1ccccc1C(c1ccccc1)(c1ccccc1)n1ccnc1 [clotrimazole],4.93
15,C#C[C@]1(O)CC[C@H]2[C@@H]3CCC4=Cc5oncc5C[C@]4(C)[C@H]3CC[C@@]21C [danazol],4.94
16,CC(C)(C)c1ccc(C(=O)CCCN2CCC(OC(c3ccccc3)c3ccccc3)CC2)cc1 [ebastine],6.81
17,C=C1CC[C@H](O)C/C1=C/C=C1\CCC[C@]2(C)[C@@H]([C@H](C)/C=C/[C@H](C)C(C)C)CC[C@@H]12 [ergocalciferol],9.15
18,C[C@]12CC[C@@H]3c4ccc(OC(=O)c5ccccc5)cc4CC[C@H]3[C@@H]1CC[C@@H]2O [estradiol benzoate],5.10
19,C#C[C@]1(O)CC[C@H]2[C@@H]3CCc4cc(O)ccc4[C@H]3CC[C@@]21C [ethinylestradiol],4.11
20,CCCCCCC(=O)OCCN1CCN(CCCN2c3ccccc3Sc3ccc(C(F)(F)F)cc32)CC1 [fluphenazine enanthate],7.29
21,COc1ccc2c(c1)c(CC(=O)O)c(C)n2C(=O)c1ccc(Cl)cc1 [indomethacin],4.25
22,O=C(COCCOCCOCC(=O)Nc1c(I)cc(I)c(C(=O)O)c1I)Nc1c(I)cc(I)c(C(=O)O)c1I [iotroxatic acid],4.32
23,CC(C)Oc1ccc2c(=O)c(-c3ccccc3)coc2c1 [ipriflavone],4.25

row,Molecule,Log Pow
1,CCC(C)n1ncn(-c2ccc(N3CCN(c4ccc(OCC5COC(Cn6cncn6)(c6ccc(Cl)cc6Cl)O5)cc4)CC3)cc2)c1=O (stereo not drawn) [itraconazole],5.00
2,Cc1cccc(Nc2ccccc2C(=O)O)c1C [mefenamic acid],4.83
3,CC(C)=CCC/C(C)=C/CC/C(C)=C/CC/C(C)=C/CC1=C(C)C(=O)c2ccccc2C1=O [menatetrenone],8.79
4,COC1(O[C@H]2CC[C@H]3[C@@H]4CC[C@H]5C[C@@H]6S[C@@H]6C[C@]5(C)[C@H]4CC[C@]23C)CCCC1 [mepitiostane],6.89
5,c1ccc2c(c1)Sc1ccccc1N2CC1CN2CCC1CC2 (stereo not drawn) [mequitazine],5.20
6,C#C[C@]1(O)CC[C@H]2[C@@H]3CCc4cc(OC)ccc4[C@H]3CC[C@@]21C [mestranol],4.94
7,CCC(=O)O[C@@H]1CC(=O)O[C@H](C)C/C=C/C=C/[C@H](OC(C)=O)[C@H](C)C[C@H](CC=O)[C@H](O[C@@H]2O[C@H](C)[C@@H](O[C@H]3C[C@@](C)(OC(C)=O)[C@@H](OC(=O)CC)[C@H](C)O3)[C@H](N(C)C)[C@H]2O)[C@H]1OC [midecamycin acetate],5.58
8,CC(C)=CCN1CCC2(C)c3cc(O)ccc3CC1C2C (stereo not drawn) [pentazocine],4.15
9,CC1=C(C/C=C(\C)CCC[C@H](C)CCC[C@H](C)CCCC(C)C)C(=O)c2ccccc2C1=O [phytonadione],10.31
10,O=c1[nH]c2ccccc2n1C1CCN(CCCC(c2ccc(F)cc2)c2ccc(F)cc2)CC1 [pimozide],5.76
11,COC(=O)[C@H]1[C@H]2C[C@@H]3c4[nH]c5cc(OC)ccc5c4CCN3C[C@H]2C[C@@H](OC(=O)c2cc(OC)c(OC)c(OC)c2)[C@@H]1OC [reserpine],4.45
12,CCCCCCCCCCCCCCCC(=O)OC/C=C(C)/C=C/C=C(C)/C=C/C1=C(C)CCCC1(C)C [retinol palmitate],14.32
13,CCCC(=O)OC[C@@H](OC(=O)CCC)[C@@H](OC(=O)CCC)[C@H](Cn1c2nc(=O)[nH]c(=O)c-2nc2cc(C)c(C)cc21)OC(=O)CCC [riboflavin butyrate],6.25
14,Cc1cc(O)c2c(c1)O[C@@]1(C)CC[C@H]3C(C)(C)CCC[C@]34CO[C@@H]2[C@H]41 [siccanin],6.10
15,C=CC[C@@H]1/C=C(\C)C[C@H](C)C[C@H](OC)[C@H]2O[C@@](O)(C(=O)C(=O)N3CCCC[C@H]3C(=O)O[C@H](/C(C)=C/[C@@H]3CC[C@@H](O)[C@H](OC)C3)[C@H](C)[C@@H](O)CC1=O)[C@H](C)C[C@@H]2OC [tacrolimus],4.79
16,CC(=O)Oc1c(C)c(C)c2c(c1C)CCC(C)(CCC[C@H](C)CCC[C@H](C)CCCC(C)C)O2 (stereo partly drawn) [tocopheryl acetate],10.69
17,Cc1cccc(N(C)C(=S)Oc2ccc3ccccc3c2)c1 [tolnaftate],5.14
18,COC1=C(OC)C(=O)C(C/C=C(\C)CC/C=C(\C)CC/C=C(\C)CC/C=C(\C)CC/C=C(\C)CC/C=C(\C)CC/C=C(\C)CC/C=C(\C)CC/C=C(\C)CCC=C(C)C)=C(C)C1=O [ubidecarenone],19.12
19,C[C@H](CCC(=O)O)[C@H]1CC[C@H]2[C@@H]3[C@@H](O)C[C@@H]4C[C@H](O)CC[C@]4(C)[C@H]3CC[C@]12C [ursodeoxycholic acid],4.76
20,CC(C(=O)O)c1ccc2c(c1)CC(=O)c1ccccc1S2 (stereo not drawn) [zaltoprofen],4.25
21,retinol acetate,7.19
22,tocopherol,10.96
